Experimental data taken from patent publication US20210346329A1, “TCA CYCLE INTERMEDIATES AND METHODS OF USE THEREOF” (IMBRIA PHARMACEUTICALS, INC., priority 2018, published 2021).

Assay: Tissue distribution of radioactivity (whole-body sections, phosphor imaging, image densitometry)
Conditions: IV 10 mg/kg
Method: The plasma-time course, routes and rates of excretion, and tissue distribution of radioactivity following a single oral dose of ^14C-labeled citrate or single oral dose of ^14C-labeled succinate were analyzed in rats.
CD® rats were obtained from Charles River Laboratories. Animals were 9-11 weeks in age at beginning of study.
Animals given intravenous ^14C-succinate were not kept in a fasting state. ^14C-succinate was administered by tail vein injection.
At 0.5, 1, 2, 4, 8, and 24 hours post-dose, after terminal blood collections, euthanized animals were frozen in a hexane/dry ice bath and embedded in a 5% carboxymethylcellulose matrix according to MPI Research SOP IMG-23.
Sections of approximately 30 μm thickness were taken in the sagittal plane. Appropriate sections selected at various levels of interest in the block were collected to encompass the following tissues, organs, and biological fluids, where possible: adrenal gland, bladder and contents (urine), blood (cardiac), bone, bone marrow, brain, epididymis, eye, fat (brown), fat (white), heart, kidney, large intestine/cecum and contents, liver, lung, muscle, pancreas, prostate/uterus, salivary glands, skin, small intestine and contents, spleen, stomach and contents, testes/ovaries, thymus, thyroid, and mesenteric lymph nodes.
Quantification, relative to the calibration standards, was performed by image densitometry using MCID™ image analysis software according to MPI Research SOP IMG-24. A standard curve was constructed from the integrated response (MDC/mm^2) and the nominal concentrations of the [^14C]calibration standards. The concentrations of radioactivity were expressed as μCi/g and converted to μg or ng equivalents of [^14C]Test Article per gram sample (ng-eq/g or μg-eq/g) using the specific activity of administered [^14C]Test Article dose formulation. A lower limit of quantification (LLOQ) was applied to the data. The LLOQ was determined using the radioactive concentration of the lowest calibration standard used to generate a calibration curve divided by the specific activity of the dose formulation (μCi/mg). Artifacts, such as those produced by dislodged contents of the alimentary canal, were excluded from analysis during image analysis.

For O=C(O)CCC(=O)O [^14C-succinate], the Radioactivity in tissue (Bone marrow, 0.5 Hour) was 1314 ng Equivalents test article/g, the Radioactivity in tissue (Bone marrow, 1 Hour) was 1750 ng Equivalents test article/g and the Radioactivity in tissue (Bone marrow, 2 Hours) was 1398 ng Equivalents test article/g. The Radioactivity in tissue (Bone marrow, 4 Hours) was 1419 ng Equivalents test article/g, the Radioactivity in tissue (Bone marrow, 8 Hours) was 1019 ng Equivalents test article/g and the Radioactivity in tissue (Bone marrow, 24 Hours) was 769 ng Equivalents test article/g. The Radioactivity in tissue (Bone, 0.5 Hour) was 3128 ng Equivalents test article/g, the Radioactivity in tissue (Bone, 1 Hour) was 3200 ng Equivalents test article/g and the Radioactivity in tissue (Bone, 2 Hours) was 1989 ng Equivalents test article/g. For the same compound, the Radioactivity in tissue (Bone, 4 Hours) was 2330 ng Equivalents test article/g, the Radioactivity in tissue (Bone, 8 Hours) was 2042 ng Equivalents test article/g and the Radioactivity in tissue (Bone, 24 Hours) was 1322 ng Equivalents test article/g. For the same compound, the Radioactivity in tissue (Cecum contents, 0.5 Hour) was 540 ng Equivalents test article/g, the Radioactivity in tissue (Cecum contents, 1 Hour) was 882 ng Equivalents test article/g and the Radioactivity in tissue (Cecum contents, 2 Hours) was 757 ng Equivalents test article/g. The Radioactivity in tissue (Cecum contents, 4 Hours) was 750 ng Equivalents test article/g, the Radioactivity in tissue (Cecum contents, 8 Hours) was 806 ng Equivalents test article/g and the Radioactivity in tissue (Cecum contents, 24 Hours) was “BLQ (BLQ: Below limit of quantitation (<320 ng equivalents test article/g).)”. For the same compound, the Radioactivity in tissue (Cecum, 0.5 Hour) was “BLQ (BLQ: Below limit of quantitation (<320 ng equivalents test article/g).)”, the Radioactivity in tissue (Cecum, 1 Hour) was “BLQ (BLQ: Below limit of quantitation (<320 ng equivalents test article/g).)” and the Radioactivity in tissue (Cecum, 2 Hours) was “BLQ (BLQ: Below limit of quantitation (<320 ng equivalents test article/g).)”. The Radioactivity in tissue (Cecum, 4 Hours) was “BLQ (BLQ: Below limit of quantitation (<320 ng equivalents test article/g).)”, the Radioactivity in tissue (Cecum, 8 Hours) was “BLQ (BLQ: Below limit of quantitation (<320 ng equivalents test article/g).)” and the Radioactivity in tissue (Cecum, 24 Hours) was “BLQ (BLQ: Below limit of quantitation (<320 ng equivalents test article/g).)”. For the same compound, the Radioactivity in tissue (Cerebellum, 0.5 Hour) was 709 ng Equivalents test article/g, the Radioactivity in tissue (Cerebellum, 1 Hour) was 847 ng Equivalents test article/g and the Radioactivity in tissue (Cerebellum, 2 Hours) was 529 ng Equivalents test article/g. The Radioactivity in tissue (Cerebellum, 4 Hours) was 503 ng Equivalents test article/g, the Radioactivity in tissue (Cerebellum, 8 Hours) was “BLQ (BLQ: Below limit of quantitation (<320 ng equivalents test article/g).)” and the Radioactivity in tissue (Cerebellum, 24 Hours) was “BLQ (BLQ: Below limit of quantitation (<320 ng equivalents test article/g).)”. For the same compound, the Radioactivity in tissue (Cerebrum, 0.5 Hour) was 596 ng Equivalents test article/g, the Radioactivity in tissue (Cerebrum, 1 Hour) was 853 ng Equivalents test article/g and the Radioactivity in tissue (Cerebrum, 2 Hours) was 477 ng Equivalents test article/g. The Radioactivity in tissue (Cerebrum, 4 Hours) was 543 ng Equivalents test article/g, the Radioactivity in tissue (Cerebrum, 8 Hours) was 348 ng Equivalents test article/g and the Radioactivity in tissue (Cerebrum, 24 Hours) was “BLQ (BLQ: Below limit of quantitation (<320 ng equivalents test article/g).)”. The Radioactivity in tissue (Epididymis, 0.5 Hour) was 699 ng Equivalents test article/g, the Radioactivity in tissue (Epididymis, 1 Hour) was 785 ng Equivalents test article/g and the Radioactivity in tissue (Epididymis, 2 Hours) was 442 ng Equivalents test article/g. For the same compound, the Radioactivity in tissue (Epididymis, 4 Hours) was “BLQ (BLQ: Below limit of quantitation (<320 ng equivalents test article/g).)”, the Radioactivity in tissue (Epididymis, 8 Hours) was “BLQ (BLQ: Below limit of quantitation (<320 ng equivalents test article/g).)” and the Radioactivity in tissue (Epididymis, 24 Hours) was “BLQ (BLQ: Below limit of quantitation (<320 ng equivalents test article/g).)”. For the same compound, the Radioactivity in tissue (Eye, 0.5 Hour) was 569 ng Equivalents test article/g, the Radioactivity in tissue (Eye, 1 Hour) was 584 ng Equivalents test article/g and the Radioactivity in tissue (Eye, 2 Hours) was 371 ng Equivalents test article/g. The Radioactivity in tissue (Eye, 4 Hours) was 413 ng Equivalents test article/g, the Radioactivity in tissue (Eye, 8 Hours) was “BLQ (BLQ: Below limit of quantitation (<320 ng equivalents test article/g).)” and the Radioactivity in tissue (Eye, 24 Hours) was “BLQ (BLQ: Below limit of quantitation (<320 ng equivalents test article/g).)”. For the same compound, the Radioactivity in tissue (Fat (brown), 0.5 Hour) was 996 ng Equivalents test article/g, the Radioactivity in tissue (Fat (brown), 1 Hour) was “BLQ (BLQ: Below limit of quantitation (<320 ng equivalents test article/g).)” and the Radioactivity in tissue (Fat (brown), 2 Hours) was “BLQ (BLQ: Below limit of quantitation (<320 ng equivalents test article/g).)”. For the same compound, the Radioactivity in tissue (Fat (brown), 4 Hours) was “BLQ (BLQ: Below limit of quantitation (<320 ng equivalents test article/g).)”, the Radioactivity in tissue (Fat (brown), 8 Hours) was “BLQ (BLQ: Below limit of quantitation (<320 ng equivalents test article/g).)” and the Radioactivity in tissue (Fat (brown), 24 Hours) was “BLQ (BLQ: Below limit of quantitation (<320 ng equivalents test article/g).)”. For the same compound, the Radioactivity in tissue (Fat (white), 0.5 Hour) was “BLQ (BLQ: Below limit of quantitation (<320 ng equivalents test article/g).)”, the Radioactivity in tissue (Fat (white), 1 Hour) was “BLQ (BLQ: Below limit of quantitation (<320 ng equivalents test article/g).)” and the Radioactivity in tissue (Fat (white), 2 Hours) was “BLQ (BLQ: Below limit of quantitation (<320 ng equivalents test article/g).)”. For the same compound, the Radioactivity in tissue (Fat (white), 4 Hours) was 348 ng Equivalents test article/g, the Radioactivity in tissue (Fat (white), 8 Hours) was “BLQ (BLQ: Below limit of quantitation (<320 ng equivalents test article/g).)” and the Radioactivity in tissue (Fat (white), 24 Hours) was “BLQ (BLQ: Below limit of quantitation (<320 ng equivalents test article/g).)”. For the same compound, the Radioactivity in tissue (Harderian gland, 0.5 Hour) was “BLQ (BLQ: Below limit of quantitation (<320 ng equivalents test article/g).)”, the Radioactivity in tissue (Harderian gland, 1 Hour) was 1983 ng Equivalents test article/g and the Radioactivity in tissue (Harderian gland, 2 Hours) was 1478 ng Equivalents test article/g. The Radioactivity in tissue (Harderian gland, 4 Hours) was “BLQ (BLQ: Below limit of quantitation (<320 ng equivalents test article/g).)”, the Radioactivity in tissue (Harderian gland, 8 Hours) was “BLQ (BLQ: Below limit of quantitation (<320 ng equivalents test article/g).)” and the Radioactivity in tissue (Harderian gland, 24 Hours) was “BLQ (BLQ: Below limit of quantitation (<320 ng equivalents test article/g).)”. The Radioactivity in tissue (Kidney, 0.5 Hour) was 3154 ng Equivalents test article/g, the Radioactivity in tissue (Kidney, 1 Hour) was 3060 ng Equivalents test article/g and the Radioactivity in tissue (Kidney, 2 Hours) was 2704 ng Equivalents test article/g. The Radioactivity in tissue (Kidney, 4 Hours) was 2075 ng Equivalents test article/g, the Radioactivity in tissue (Kidney, 8 Hours) was 2031 ng Equivalents test article/g and the Radioactivity in tissue (Kidney, 24 Hours) was 1120 ng Equivalents test article/g. The Radioactivity in tissue (Lacrimal gland (Ex-orbital), 0.5 Hour) was “BLQ (BLQ: Below limit of quantitation (<320 ng equivalents test article/g).)”, the Radioactivity in tissue (Lacrimal gland (Ex-orbital), 1 Hour) was 1557 ng Equivalents test article/g and the Radioactivity in tissue (Lacrimal gland (Ex-orbital), 2 Hours) was 1655 ng Equivalents test article/g. The Radioactivity in tissue (Lacrimal gland (Ex-orbital), 4 Hours) was 1993 ng Equivalents test article/g, the Radioactivity in tissue (Lacrimal gland (Ex-orbital), 8 Hours) was 1388 ng Equivalents test article/g and the Radioactivity in tissue (Lacrimal gland (Ex-orbital), 24 Hours) was “BLQ (BLQ: Below limit of quantitation (<320 ng equivalents test article/g).)”. The Radioactivity in tissue (Lacrimal gland (Intra-orbital), 0.5 Hour) was “BLQ (BLQ: Below limit of quantitation (<320 ng equivalents test article/g).)”, the Radioactivity in tissue (Lacrimal gland (Intra-orbital), 1 Hour) was 2323 ng Equivalents test article/g and the Radioactivity in tissue (Lacrimal gland (Intra-orbital), 2 Hours) was 1355 ng Equivalents test article/g. For the same compound, the Radioactivity in tissue (Lacrimal gland (Intra-orbital), 4 Hours) was “BLQ (BLQ: Below limit of quantitation (<320 ng equivalents test article/g).)”, the Radioactivity in tissue (Lacrimal gland (Intra-orbital), 8 Hours) was “BLQ (BLQ: Below limit of quantitation (<320 ng equivalents test article/g).)” and the Radioactivity in tissue (Lacrimal gland (Intra-orbital), 24 Hours) was “BLQ (BLQ: Below limit of quantitation (<320 ng equivalents test article/g).)”. The Radioactivity in tissue (Large intestinal contents, 0.5 Hour) was “BLQ (BLQ: Below limit of quantitation (<320 ng equivalents test article/g).)”, the Radioactivity in tissue (Large intestinal contents, 1 Hour) was 519 ng Equivalents test article/g and the Radioactivity in tissue (Large intestinal contents, 4 Hours) was 810 ng Equivalents test article/g. For the same compound, the Radioactivity in tissue (Large intestinal contents, 8 Hours) was 593 ng Equivalents test article/g, the Radioactivity in tissue (Large intestinal contents, 24 Hours) was “BLQ (BLQ: Below limit of quantitation (<320 ng equivalents test article/g).)” and the Radioactivity in tissue (Large intestine, 0.5 Hour) was “BLQ (BLQ: Below limit of quantitation (<320 ng equivalents test article/g).)”. For the same compound, the Radioactivity in tissue (Large intestine, 1 Hour) was 1787 ng Equivalents test article/g, the Radioactivity in tissue (Large intestine, 2 Hours) was 1716 ng Equivalents test article/g and the Radioactivity in tissue (Large intestine, 4 Hours) was 1361 ng Equivalents test article/g. For the same compound, the Radioactivity in tissue (Large intestine, 8 Hours) was “BLQ (BLQ: Below limit of quantitation (<320 ng equivalents test article/g).)”, the Radioactivity in tissue (Large intestine, 24 Hours) was “BLQ (BLQ: Below limit of quantitation (<320 ng equivalents test article/g).)” and the Radioactivity in tissue (Liver, 0.5 Hour) was 2431 ng Equivalents test article/g. The Radioactivity in tissue (Liver, 1 Hour) was 3607 ng Equivalents test article/g, the Radioactivity in tissue (Liver, 2 Hours) was 2005 ng Equivalents test article/g and the Radioactivity in tissue (Liver, 4 Hours) was 1561 ng Equivalents test article/g. The Radioactivity in tissue (Liver, 8 Hours) was 1190 ng Equivalents test article/g.
